Test results from patent US20170086467A1, “MOLLUSCICIDE COMPOSITIONS AND METHODS OF USE THEREOF” (ECOFLORA AGRO SAS, priority 2014, published 2017).
Read-outs that look alike come from different tables or passages of the source.

Assays:
[1] = 200° C.; one hour drying
Text: Caffeine was also quantitated by HPLC to determine the thermal stability of the molecule.

[2] = tested on: banana tree snails (African snails); test: Mortality of banana plantation snails on treated plates in a shade house; type: in vivo; conditions: T7, 2 g/plate
Protocol: The experiments were conducted in a shade house. Plastic plates and baskets for cover were used to keep the snails in contact with the products. Live snails were obtained by collection/pick up in a banana plantation. Approximately 250 snails were captured early in the morning, the time of day when they are still found in large numbers on the leaves and trunks of banana plants.
BROMOREX® 9.37 is a liquid formulation comprising capsicum extract and mustard essential oil. metaldehyde is a chemical molluscicide.
Four plates per treatment were randomly arranged on a shelf in the shade house. At the bottom of each plate small portions of banana leaves, papaya, and two slices of ripe bananas were placed. 20 mL of each sample was poured into each plate. Eight live snails of the same morphology and size were placed on each plate. Each treatment was repeated 4 times. The plates were covered with baskets that promoted good ventilation and prevented the snails from escaping. The treatments were carried out in late afternoon.
The behavior of snails in contact with the products as well as the mortality of the snails were recorded and interpreted. The data on the mortality of snails to 5 days after application of the products were statistically analyzed using the R software version 3.0.1. The separation of averages for significant effects was made using the Newman-Keuls test at 5% significant level.

Row | SMILES | thermal stability (in words) [1] | thermal stability (in words) | mortality rate ([2]; 3 hours after treatment) [%] | mortality rate ([2]; after 5 days) [%]
1 | Cn1c(=O)c2c(ncn2C)n(C)c1=O [caffeine, 3,7-dihydro-1,3,7-trimethyl-1H-purine-2,6-dione] | Pyrolysis and caffeine sublimation were observed | stable |  | 
2 | CC1OC(C)OC(C)OC(C)O1 (stereo not shown) [metaldehyde] |  |  | 6.25 | 34
